According to ChEMBL document CHEMBL1131553, “Orally active indole N-oxide PDE4 inhibitors” (Bioorg Med Chem Lett, 1998):

How the values were obtained:
[1] = Time taken to reach maximum concentration in plasma upon oral administration in mouse; type: ADME, organism-based
[2] = Value distribution upon iv administration in mouse; type: ADME, organism-based; conditions: in vivo, read-out: Vdss
[3] = Area under curve by ioral administration in mouse; type: ADME, organism-based; conditions: in vivo, po
[4] = Area under curve by iv administration in mouse; type: ADME, organism-based; conditions: in vivo
[5] = Maximum concentration in plasma upon oral administration in mouse; type: ADME, organism-based; conditions: read-out: Cp max
[6] = Plasma clearance value upon iv administration in mouse; type: ADME, organism-based
[7] = Oral bioavailability in mouse; type: ADME, organism-based; conditions: in vivo
[8] = Half-life by iv administration in mouse; type: ADME, organism-based; conditions: in vivo
[9] = Half-life by oral administration in mouse; type: ADME, organism-based; conditions: in vivo
Canis familiaris [10] = experiment: Emetic effect in dogs on intravenous dose (0/4); type: functional; conditions: Canis lupus familiaris
Mus musculus [11] = experiment: In vivo inhibition of LPS induced tumor necrosis factor (TNF-alpha) in mice; type: functional
Phosphodiesterase 4 [12] = biological target: T1, Phosphodiesterase 4 (Homo sapiens, UniProt P27815+Q08499+Q07343+Q08493); experiment: Inhibition of phosphodiesterase type IV (PDE4) activity; type: protein assay
Phosphodiesterase 4 [13] = biological target: T1, Phosphodiesterase 4; type: protein assay
Mus musculus [14] = experiment: In vivo inhibition of LPS induced tumor necrosis factor (TNF-alpha) in mice at 50 mg/kg; type: functional
Mus musculus [15] = experiment: In vivo inhibition of LPS induced tumor necrosis factor (TNF-alpha) in mice at 10 mg/kg; type: functional
Canis familiaris [16] = experiment: Emetic effect in dogs on intravenous dose (4/4); type: functional; conditions: Canis lupus familiaris
Canis familiaris [17] = experiment: Emetic effect in dogs on intravenous dose (3/4); type: functional; conditions: Canis lupus familiaris
Canis familiaris [18] = experiment: Emetic effect in dogs on intravenous dose (2/2); type: functional; conditions: Canis lupus familiaris
Rattus norvegicus [19] = experiment: Streptococcal cell wall-washed arthritis model in rats at 3.0 mg/kg peroral dose; type: functional; conditions: route oral
Rattus norvegicus [20] = experiment: Streptococcal cell wall-washed arthritis model in rats at 30.0 mg/kg peroral dose; type: functional; conditions: route oral
Rattus norvegicus [21] = experiment: Streptococcal cell wall-washed arthritis model in rats at 10.0 mg/kg peroral dose; type: functional; conditions: route oral
Rattus norvegicus [22] = experiment: Percentage change in body weight of rats in streptococcal cell wall-washed arthritis model at 30.0 mg/kg peroral dose; type: functional; conditions: route oral
Rattus norvegicus [23] = experiment: Percentage change in body weight of rats in streptococcal cell wall-washed arthritis model at 10.0 mg/kg peroral dose; type: functional; conditions: route oral
Rattus norvegicus [24] = experiment: Percentage change in body weight of rats in streptococcal cell wall-washed arthritis model at 3.0 mg/kg peroral dose; type: functional; conditions: route oral
Rattus norvegicus [25] = experiment: Inhibition of streptococcal cell wall-washed arthritis model in rats at 10.0 mg/kg peroral dose; type: functional; conditions: route oral
Rattus norvegicus [26] = experiment: Inhibition of streptococcal cell wall-washed arthritis model in rats at 3.0 mg/kg peroral dose; type: functional; conditions: route oral
Rattus norvegicus [27] = experiment: Inhibition of streptococcal cell wall-washed arthritis model in rats at 30.0 mg/kg peroral dose; type: functional; conditions: route oral

Structure (SMILES): Cc1cn(Cc2ccccc2)c2cc(C(=O)Nc3c(Cl)c[n+]([O-])cc3Cl)ccc12
- Tmax [1]: 0.25 h
- Vd [2]: 0.9 L/kg
- AUC [3]: 669 ng·h/mL
- AUC [4]: 2020 ng·h/mL
- Cmax [5]: 393 ng/mL
- clearance [6]: 8.33 mL/min/kg
- bioavailability [7]: 33%
- half-life [8]: 5.1 h
- half-life [9]: 3.7 h
- ED50 (Canis familiaris [10]): 3 mg/kg
- ED50 (Mus musculus [11]): 20 mg/kg
- IC50 (Phosphodiesterase 4 [12]): 8 nM
- Ki (Phosphodiesterase 4 [13]): 60 nM

Structure (SMILES): Cc1cn(Cc2ccc3c(c2)OCO3)c2cc(C(=O)Nc3c(Cl)c[n+]([O-])cc3Cl)ccc12
- inhibition in vivo at 50 mg/kg (Mus musculus [14]): 40%
- IC50 (Phosphodiesterase 4 [12]): 24 nM
- Ki (Phosphodiesterase 4 [13]): 86 nM

Structure (SMILES): Cc1cn(CCCc2ccccc2)c2cc(C(=O)Nc3c(Cl)c[n+]([O-])cc3Cl)ccc12
- inhibition in vivo at 50 mg/kg (Mus musculus [14]): 34%
- IC50 (Phosphodiesterase 4 [12]): 7 nM
- Ki (Phosphodiesterase 4 [13]): 30 nM

Structure (SMILES): Cc1cn(Cc2ccc(Cl)cc2)c2cc(C(=O)Nc3c(Cl)c[n+]([O-])cc3Cl)ccc12
- inhibition in vivo at 50 mg/kg (Mus musculus [14]): 10%
- IC50 (Phosphodiesterase 4 [12]): 12 nM
- Ki (Phosphodiesterase 4 [13]): 71 nM

Structure (SMILES): Cc1cn(CCCC2CCCCC2)c2cc(C(=O)Nc3c(Cl)c[n+]([O-])cc3Cl)ccc12
- inhibition in vivo at 50 mg/kg (Mus musculus [14]): 47%
- IC50 (Phosphodiesterase 4 [12]): 16 nM
- Ki (Phosphodiesterase 4 [13]): 67 nM

Structure (SMILES): Cc1cn(CC2CCCCC2)c2cc(C(=O)Nc3c(Cl)cncc3Cl)ccc12
- inhibition in vivo at 50 mg/kg (Mus musculus [14]): 0%

Structure (SMILES): Cc1nc(Cn2cc(C)c3ccc(C(=O)Nc4c(Cl)c[n+]([O-])cc4Cl)cc32)cs1
- inhibition in vivo at 50 mg/kg (Mus musculus [14]): 52%
- IC50 (Phosphodiesterase 4 [12]): 80 nM
- Ki (Phosphodiesterase 4 [13]): 64 nM

Structure (SMILES): Cc1cn(CC2CCCCCC2)c2cc(C(=O)Nc3c(Cl)c[n+]([O-])cc3Cl)ccc12
- inhibition in vivo at 10 mg/kg (Mus musculus [15]): 8%
- IC50 (Phosphodiesterase 4 [12]): 20 nM
- Ki (Phosphodiesterase 4 [13]): 30 nM

Structure (SMILES): Cc1cn(C2CCCCC2)c2cc(C(=O)Nc3c(Cl)c[n+]([O-])cc3Cl)ccc12
- IC50 (Phosphodiesterase 4 [12]): 19 nM
- Ki (Phosphodiesterase 4 [13]): 38 nM

Structure (SMILES): Cc1cn(Cc2ccc3ccccc3c2)c2cc(C(=O)Nc3c(Cl)c[n+]([O-])cc3Cl)ccc12
- IC50 (Phosphodiesterase 4 [12]): 22 nM
- Ki (Phosphodiesterase 4 [13]): 51 nM

Structure (SMILES): Cc1cn(Cc2ccc(S(C)(=O)=O)cc2)c2cc(C(=O)Nc3c(Cl)c[n+]([O-])cc3Cl)ccc12
- inhibition in vivo at 50 mg/kg (Mus musculus [14]): 38%
- IC50 (Phosphodiesterase 4 [12]): 260 nM
- Ki (Phosphodiesterase 4 [13]): 1124 nM

Structure (SMILES): Cc1cn(CC(C)C)c2cc(C(=O)Nc3c(Cl)c[n+]([O-])cc3Cl)ccc12
- inhibition in vivo at 10 mg/kg (Mus musculus [15]): 0%
- IC50 (Phosphodiesterase 4 [12]): 38 nM
- Ki (Phosphodiesterase 4 [13]): 116 nM

Structure (SMILES): COc1ccc(C(=O)Nc2c(Cl)cncc2Cl)cc1OC1CCCC1
- ED50 (Canis familiaris [16]): 0.6 mg/kg
- ED50 (Mus musculus [11]): 3.1 mg/kg

Structure (SMILES): Cc1cn(CCC2CCCCC2)c2cc(C(=O)Nc3c(Cl)c[n+]([O-])cc3Cl)ccc12
- ED50 (Canis familiaris [17]): 1 mg/kg
- ED50 (Mus musculus [11]): 7.4 mg/kg
- IC50 (Phosphodiesterase 4 [12]): 4.1 nM
- Ki (Phosphodiesterase 4 [13]): 12 nM

Structure (SMILES): Cc1cn(Cc2ccc(C(=O)O)cc2)c2cc(C(=O)Nc3c(Cl)c[n+]([O-])cc3Cl)ccc12
- IC50 (Phosphodiesterase 4 [12]): 1400 nM
- Ki (Phosphodiesterase 4 [13]): 3184 nM

Structure (SMILES): Cc1noc(C)c1Cn1cc(C)c2ccc(C(=O)Nc3c(Cl)c[n+]([O-])cc3Cl)cc21
- inhibition in vivo at 50 mg/kg (Mus musculus [14]): 40%
- IC50 (Phosphodiesterase 4 [12]): 500 nM
- Ki (Phosphodiesterase 4 [13]): 225 nM

Structure (SMILES): Cc1cn(Cc2ccccc2)c2cc(C(=O)Nc3c(Cl)cncc3Cl)ccc12
- inhibition in vivo at 50 mg/kg (Mus musculus [14]): 0%

Structure (SMILES): COc1ccc(C2CNC(=O)C2)cc1OC1CCCC1 (configuration not stated) [ROLIPRAM]
- ED50 (Canis familiaris [18]): 0.03 mg/kg
- ED50 (Mus musculus [11]): 8.2 mg/kg

Structure (SMILES): Cc1cn(Cc2nccn2Cc2ccccc2)c2cc(C(=O)Nc3c(Cl)c[n+]([O-])cc3Cl)ccc12
- inhibition in vivo at 50 mg/kg (Mus musculus [14]): 38%
- IC50 (Phosphodiesterase 4 [12]): 420 nM
- Ki (Phosphodiesterase 4 [13]): 393 nM

Structure (SMILES): Cc1cn(Cc2ccc(C(F)(F)F)cc2)c2cc(C(=O)Nc3c(Cl)c[n+]([O-])cc3Cl)ccc12
- ED50 (Mus musculus [11]): 10 mg/kg
- IC50 (Phosphodiesterase 4 [12]): 14 nM
- Ki (Phosphodiesterase 4 [13]): 67 nM

Structure (SMILES): Cc1cn(CCCCc2ccccc2)c2cc(C(=O)Nc3c(Cl)c[n+]([O-])cc3Cl)ccc12
- inhibition in vivo at 10 mg/kg (Mus musculus [15]): 53%
- IC50 (Phosphodiesterase 4 [12]): 46 nM
- Ki (Phosphodiesterase 4 [13]): 135 nM

Structure (SMILES): Cc1cn(CC2CCCCC2)c2cc(C(=O)Nc3c(Cl)c[n+]([O-])cc3Cl)ccc12
- Tmax [1]: 1 h
- Vd [2]: 1.7 L/kg
- AUC [3]: 3140 ng·h/mL
- AUC [4]: 3260 ng·h/mL
- Mean AUC (Rattus norvegicus [19]): 3.7
- Mean AUC (Rattus norvegicus [20]): 1.1
- Cmax [5]: 439 ng/mL
- clearance [6]: 5 mL/min/kg
- Mean AUC (Rattus norvegicus [21]): 3.3
- bioavailability [7]: 96%
- half-life [8]: 3.6 h
- half-life [9]: 2.5 h
- ED50 (Canis familiaris [10]): > 0.8 mg/kg
- ED50 (Mus musculus [11]): 7.1 mg/kg
- Change (Rattus norvegicus [22]): -13%
- Change (Rattus norvegicus [23]): -7%
- Change (Rattus norvegicus [24]): -5%
- inhibition in vivo at 10 mg/kg (Rattus norvegicus [25]): 33%
- inhibition in vivo at 3 mg/kg (Rattus norvegicus [26]): 25%
- inhibition in vivo at 30 mg/kg (Rattus norvegicus [27]): 77%
- IC50 (Phosphodiesterase 4 [12]): 30 nM
- Ki (Phosphodiesterase 4 [13]): 86 nM
